According to patent publication US20250163064A1, “QUINAZOLINE COMPOUNDS AND USES THEREOF AS INHIBITORS OF MUTANT KRAS PROTEINS” (AMGEN INC., priority 2022, published 2025):
pIC50: −log10 of the molar value.

Legend:
[1] = target: His-tagged KRAS G12D protein (Homo sapiens (Human), UniProt P01116, G12D); assay: KRAS G12D TR-FRET Assay; assay type: binding; conditions: biotinylated KRPep-2d, 10 μM GDP
Description: Compounds of interest were prepared in a dose-response titration in DMSO, and 80 nL were added via Labcyte Echo to each well of a 384-well plate (Perkin Elmer 6008280). The His-tagged KRAS G12D protein (Amgen) was diluted to 20 nM in Assay Buffer (20 mM HEPES, pH 7.4, 10 mM MgCl2, 50 mM NaCl, 0.1% BSA, 0.01% Tween-20, 10 μM GDP) and 2 μL was added to the appropriate wells of the 384-well plate. The plate was incubated for 30 minutes at rt. Biotinylated KRPep-2d substrate (Amgen) was diluted to […] in Assay Buffer and 2 AL was added to all wells and incubated for 1 hour at room temperature. Detection Reagent (0.4 nM LANCE Eu-W1024 Anti-6×His (Perkin Elmer AD0401), 5 nM streptavidin-d2 (Cisbio 610SADLA)) was prepared in Assay Buffer, then 4 AL was added to the plate and incubated for 1 h at rt. Plates were read using PerkinElmer En Vision (ex: 320 nm, em1: 665 nm, em2: 615 nm) and em1/em2 data was used to generate curve fits using a 4-parameter logistic model to calculate IC50 values.

[2] = target: GDP-bound KRAS protein (aa 1-169), G12D and C118A; SOS-mediated nucleotide exchange (Homo sapiens (Human), UniProt P01116, C118A/G12D); assay: KRAS G12D Coupled Nucleotide Exchange Assay; assay type: biochemical; conditions: 2 h compound pre-incubation, GTP, cRAF AlphaScreen
Sequence of GDP-bound KRAS protein (aa 1-169), G12D and C118A; SOS-mediated nucleotide exchange (P01116 other isoform, or with tags, fused parts or gaps G12D/C118A): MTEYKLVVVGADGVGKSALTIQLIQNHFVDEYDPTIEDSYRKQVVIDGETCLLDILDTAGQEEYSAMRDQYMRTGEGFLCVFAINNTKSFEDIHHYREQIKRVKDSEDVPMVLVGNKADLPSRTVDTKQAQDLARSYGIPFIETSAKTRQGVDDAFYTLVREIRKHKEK
Description: Purified GDP-bound KRAS protein (aa 1-169), containing both G12D and C118A amino acid substitutions and an N-terminal His-tag, was pre-incubated in assay buffer (25 mM HEPES pH 7.4, 10 mM MgCl2, and 0.01% Triton X-100) with a compound dose-response titration for 2 h. Following compound pre-incubation, purified SOS protein (aa 564-1049) and GTP (Roche 10106399001) were added to the assay wells and incubated for an additional 30 min. […] The assay plates were then read on a PerkinElmer En Vision Multilabel Reader, using AlphaScreen® technology, and data were analyzed using a 4-parameter logistic model to calculate IC50 values.

[3] = system: Phosphorylation of ERK1/2 in AsPC-1 cells; assay: Phospho-ERK1/2 MSD Assay; assay type: cell-based; conditions: Homo sapiens, ASPC1, 2 h, read-out: 2 h p-ERK (AsPC-1 cells), IC50 (μM), AsPC-1 cells, 2 h compound treatment
Description: AsPC-1 (ATCC® CRL-1682TM) cells were cultured in RPMI 1640 Medium (ThermoFisher Scientific 11875093) containing 10% fetal bovine serum (ThermoFisher Scientific 16000044) and 1× penicillin-streptomycin-glutamine (ThermoFisher Scientific 10378016). Sixteen hours prior to compound treatment, AsPC-1 cells were seeded in 96-well cell culture plates at a density of 25,000 cells/well and incubated at 37° C., 5% CO2. A compound dose-response titration was diluted in growth media, added to appropriate wells of a cell culture plate, and then incubated at 37° C., 5% CO2 for 2 hours. Following compound treatment, cells were washed with ice-cold Dulbecco's phosphate-buffered saline, no Ca^2+ or Mg^2+ (ThermoFisher Scientific 14190144), and then lysed in RIPA buffer (50 mM Tris-HCl pH 7.5, 1% Igepal, 0.5% sodium deoxycholate, 150 mM NaCl, and 0.5% sodium dodecyl sulfate) containing protease inhibitors (Roche 4693132001) and phosphatase inhibitors (Roche 4906837001). Phosphorylation of ERK1/2 in compound-treated lysates was assayed using Phospho-ERK1/2 Whole Cell Lysate kits (Meso Scale Discovery K151DWD) according to the manufacturer's protocol. Assay plates were read on a Meso Scale Discovery Sector Imager 6000, and data were analyzed using a 4-parameter logistic model to calculate IC50 values.

Sequence of His-tagged KRAS G12D protein (P01116-2 other isoform, or with tags, fused parts or gaps G12D): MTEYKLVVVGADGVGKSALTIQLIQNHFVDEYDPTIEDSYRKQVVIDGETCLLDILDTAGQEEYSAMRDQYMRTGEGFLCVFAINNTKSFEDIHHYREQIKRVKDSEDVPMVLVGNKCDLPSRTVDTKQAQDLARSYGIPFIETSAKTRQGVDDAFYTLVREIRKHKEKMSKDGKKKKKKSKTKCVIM

Compound | pIC50 [1] | pIC50 [2] | IC50 [3]
N#Cc1c(N)sc2c(F)ccc(-c3c(Cl)cc4c(N5CCCCC5)nc(OC[C@@]56CCCN5C[C@H](F)C6)nc4c3F)c12 [Example 26, 2-Amino-4-(6-chloro-8-fluoro-2-(((2R,7aS)-2-fluorotetrahydro-1H-pyrrolizin-7a(5H)-yl)methoxy)-4-(piperidin-1-yl)quinazolin-7-yl)-7-fluorobenzo[6] thiophene-3-carbonitrile] | 8.22 | 8.15 | 0.601 µM
N#Cc1c(N)sc2c(F)ccc(-c3c(Cl)cc4c(N5CCCCC(F)C5)nc(OC[C@@]56CCCN5C[C@H](F)C6)nc4c3F)c12 (stereo partly drawn) [Example 27, 2-Amino-4-(6-chloro-8-fluoro-4-(3-fluoroazepan-1-yl)-2-(((2R,7aS)-2-fluorotetrahydro-1H-pyrrolizin-7a(5H)-yl)methoxy)quinazolin-7-yl)-7-fluorobenzo[b] thiophene-3-carbonitrile] | 8.70 | 8.70 | 0.043 µM
N#Cc1c(N)sc2c(F)ccc(-c3c(Cl)cc4c(N5CCOC[C@H](O)C5)nc(OC[C@@]56CCCN5C[C@H](F)C6)nc4c3F)c12 [Example 30, 2-Amino-4-(6-chloro-8-fluoro-2-(((2R,7aS)-2-fluorotetrahydro-1H-pyrrolizin-7a(5H)-yl)methoxy)-4-((R)-6-hydroxy-1,4-oxazepan-4-yl)quinazolin-7-yl)-7-fluorobenzo[b] thiophene-3-carbonitrile] | 9.40 | 9.10 | 0.212 µM
N#Cc1c(N)sc2c(F)ccc(-c3c(Cl)cc4c(N5CCCCCCC5)nc(OC[C@@]56CCCN5C[C@H](F)C6)nc4c3F)c12 [Example 31, 2-Amino-4-(4-(azocan-1-yl)-6-chloro-8-fluoro-2-(((2R,7aS)-2-fluorotetrahydro-1H-pyrrolizin-7a(5H)-yl)methoxy)quinazolin-7-yl)-7-fluorobenzo[b] thiophene-3-carbonitrile] | 9.00 | 9.00 | 0.187 µM
N#Cc1c(N)sc2c(F)ccc(-c3c(Cl)cc4c(N5CCOC[C@@H](O)C5)nc(OC[C@@]56CCCN5C[C@H](F)C6)nc4c3F)c12 [Example 32, 2-Amino-4-(6-chloro-8-fluoro-2-(((2R,7aS)-2-fluorotetrahydro-1H-pyrrolizin-7a(5H)-yl)methoxy)-4-((S)-6-hydroxy-1,4-oxazepan-4-yl)quinazolin-7-yl)-7-fluorobenzo[b] thiophene-3-carbonitrile] | 8.70 | 8.70 | 0.079 µM
N#Cc1c(N)sc2c(F)ccc(-c3c(Cl)cc4c(N5CC6COC(C6)C5)nc(OC[C@@]56CCCN5C[C@H](F)C6)nc4c3F)c12 (stereo partly drawn) [Example 33, 4-(4-(6-Oxa-3-azabicyclo[3.2.1]octan-3-yl)-6-chloro-8-fluoro-2-(((2R,7aS)-2-fluorotetrahydro-1H-pyrrolizin-7a(5H)-yl)methoxy)quinazolin-7-yl)-2-amino-7-fluorobenzo[b] thiophene-3-carbonitrile] | 8.52 | 8.52 | 0.285 µM
N#Cc1c(N)sc2c(F)ccc(-c3c(Cl)cc4c(N5CCOCC(F)(F)C5)nc(OC[C@@]56CCCN5C[C@H](F)C6)nc4c3F)c12 [Example 34, 2-Amino-4-(6-chloro-4-(6,6-difluoro-1,4-oxazepan-4-yl)-8-fluoro-2-(((2R,7aS)-2-fluorotetrahydro-1H-pyrrolizin-7a(5H)-yl)methoxy)quinazolin-7-yl)-7-fluorobenzo[b] thiophone-3-carbonitrile] | 8.40 | 8.40 | 0.093 µM
N#Cc1c(N)sc2c(F)ccc(-c3c(Cl)cc4c(N5CCC[C@@H](O)C5)nc(OC[C@@]56CCCN5C[C@H](F)C6)nc4c3F)c12 [Example 35, 2-Amino-4-(6-chloro-8-fluoro-2-(((2R,7aS)-2-fluorotetrahydro-1H-pyrrolizin-7a(5H)-yl)methoxy)-4-((R)-3-hydroxypiperidin-1-yl)quinazolin-7-yl)-7-fluorobenzo[b] thiophene-3-carbonitrile] | 8.40 | 8.30 | 0.199 µM
N#Cc1c(N)sc2c(F)ccc(-c3c(Cl)cc4c(N5CCC[C@H](O)C5)nc(OC[C@@]56CCCN5C[C@H](F)C6)nc4c3F)c12 [Example 36, 2-Amino-4-(6-chloro-8-fluoro-2-(((2R,7aS)-2-fluorotetrahydro-1H-pyrrolizin-7a(5H)-yl)methoxy)-4-((S)-3-hydroxypiperidin-1-yl)quinazolin-7-yl)-7-fluorobenzo[b] thiophene-3-carbonitrile] | 8.30 | 8.22 | 0.205 µM
CCC1(O)CCCN(c2nc(OC[C@@]34CCCN3C[C@H](F)C4)nc3c(F)c(-c4ccc(F)c5sc(N)c(C#N)c45)c(Cl)cc23)C1 (stereo partly drawn) [Example 37, 2-Amino-4-(6-chloro-4-(3-ethyl-3-hydroxypiperidin-1-yl)-8-fluoro-2-(((2R,7aS)-2-fluorotetrahydro-1H-pyrrolizin-7a(5H)-yl)methoxy)quinazolin-7-yl)-7-fluorobenzo[b] thiophone-3-carbonitrile] | 8.10 | 8.00 | 0.859 µM
N#Cc1c(N)sc2c(F)ccc(-c3c(Cl)cc4c(N5CCCC6(CCS(=O)(=O)C6)C5)nc(OC[C@@]56CCCN5C[C@H](F)C6)nc4c3F)c12 (stereo partly drawn) [Example 38, 2-Amino-4-(6-chloro-4-(2,2-dioxido-2-thia-7-azaspiro[4.5]decan-7-yl)-8-fluoro-2-(((2R,7aS)-2-fluorotetrahydro-1H-pyrrolizin-7a(5H)-yl)methoxy)quinazolin-7-yl)-7-fluorobenzo[b] thiophene-3-carbonitrile] | 8.00 | 8.00 | 0.781 µM
C[C@]1(O)CCCN(c2nc(OC[C@@]34CCCN3C[C@H](F)C4)nc3c(F)c(-c4ccc(F)c5sc(N)c(C#N)c45)c(Cl)cc23)C1 [Example 39, 2-Amino-4-(6-chloro-8-fluoro-2-(((2R,7aS)-2-fluorotetrahydro-1H-pyrrolizin-7a(5H)-yl)methoxy)-4-((S)-3-hydroxy-3-methylpiperidin-1-yl)quinazolin-7-yl)-7-fluorobenzo[b] thiophene-3-carbonitrile] | 8.00 | 7.96 | 0.283 µM
N#Cc1c(N)sc2c(F)ccc(-c3c(Cl)cc4c(N5CCCC6(CC(=O)C6)C5)nc(OC[C@@]56CCCN5C[C@H](F)C6)nc4c3F)c12 [Example 40, 2-Amino-4-(6-chloro-8-fluoro-2-(((2R,7aS)-2-fluorotetrahydro-1H-pyrrolizin-7a(5H)-yl)methoxy)-4-(2-oxo-6-azaspiro[3.5]nonan-6-yl)quinazolin-7-yl)-7-fluorobenzo[b] thiophene-3-carbonitrile] | 7.72 | 7.59 | 1.68 µM
C[C@@]1(O)CCCN(c2nc(OC[C@@]34CCCN3C[C@H](F)C4)nc3c(F)c(-c4ccc(F)c5sc(N)c(C#N)c45)c(Cl)cc23)C1 [Example 41, 2-Amino-4-(6-chloro-8-fluoro-2-(((2R,7aS)-2-fluorotetrahydro-1H-pyrrolizin-7a(5H)-yl)methoxy)-4-((R)-3-hydroxy-3-methylpiperidin-1-yl)quinazolin-7-yl)-7-fluorobenzo[b] thiophene-3-carbonitrile] | 8.52 | 8.40 | 0.288 µM
N#Cc1c(N)sc2c(F)ccc(-c3c(Cl)cc4c(N5CCCC6(COC6)C5)nc(OC[C@@]56CCCN5C[C@H](F)C6)nc4c3F)c12 [Example 42, 2-Amino-4-(6-chloro-8-fluoro-2-(((2R,7aS)-2-fluorotetrahydro-1H-pyrrolizin-7a(5H)-yl)methoxy)-4-(2-oxa-6-azaspiro[3.5]nonan-6-yl)quinazolin-7-yl)-7-fluorobenzo[b] thiophene-3-carbonitrile] | 8.10 | 8.00 | 0.402 µM
